Assay results: US9315453B2, “4-(3-benzyloxyphenylthio)-2-chloro-1-(3-nitropropyl)benzene crystal” (KYORIN PHARMACEUTICAL CO., LTD., priority 2012, dated 2016)

Tests used:
[1] = Stability test of the crystals under accelerated and long-term storage conditions; type: physicochemical; conditions: 6 months after the start of the test, crystals obtained in Example 1
Description: The crystals of the compound 1 obtained in Example 1 were subjected to a stability test under accelerated conditions (40° C./75% RH) and long-term storage conditions (25° C./60% RH).

[2] = accelerated conditions (40° C./75% RH)
[3] = long-term storage conditions (25° C./60% RH)

- melting point: 46 to 47 °C
- change in the appearance of the crystals [1, 2]: No change in the appearance
- formation of decomposition products [1, 2]: no decomposition products were formed
- change in the appearance of the crystals [1, 3]: No change in the appearance
- formation of decomposition products [1, 3]: no decomposition products were formed
SMILES: O=[N+]([O-])CCCc1ccc(Sc2cccc(OCc3ccccc3)c2)cc1Cl [compound 1, 4-(3-benzyloxyphenylthio)-2-chloro-1-(3-nitropropyl)benzene]
